Assay results reported in patent publication US7465744B2, “Triazole compounds and the therapeutic use thereof” (Abbott GmbH & Co. KG, priority 2003, dated 2008).
Where a name gives a salt, the structure may show the parent alone.

Legend:
[1] = target: T1, human dopamine D2 (L) receptors (long isoform) (Homo sapiens, UniProt P14416); assay: Receptor binding study, dopamine D2(L) receptor ([125I]-iodospiperone displacement); details: selectivity ratio D2(L) versus D3 binding
T1 construct: expressed in transfected cells
Description: (§1) The substance to be tested was dissolved either in methanol/Chremophor® (BASF-AG) or in dimethyl sulfoxide and then diluted with water to the desired concentration.
The mixture (1 ml) was composed of membranes from ˜10^6 HEK-293 cells with stably expressed human dopamine D2 (L) receptors (long isoform) and 0.01 nM [^125I]-iodospiperone and incubation buffer (total binding) or with addition of test substance (inhibition plot) or 1 μM haloperidol (nonspecific binding). Triplicate mixtures were carried out.
The incubation buffer contained 50 mM Tris, 120 mM NaCl, 5 mM KCl, 2 mM CaCl2, 2 mM MgCl2 and 0.1% bovine serum albumin. The buffer was adjusted to pH 7.4 with HCl.
(§2) After incubation at 25° C. for 60 minutes, the mixtures were filtered under vacuum through Wathman GF/B glass fiber filters using a cell harvester. The filters were transferred by a filter transfer system into scintillation vials. After addition of 4 ml of Ultima Gold® (Packard), the samples were shaken for one hour and then the radioactivity was calculated in a beta counter (Packard, Tricarb 2000 or 2200CA). The cp values were converted into dpm by means of a standard quench series with the aid of the instrument's own program.
(§3) Evaluation of the inhibition plots took place by iterative nonlinear regression analysis using the statistical analysis system (SAS) similar to the “LIGAND” program described by Munson and Rodbard.

[2] = target: T2, human dopamine D3 receptors (Homo sapiens, UniProt P35462); assay: Receptor binding study, dopamine D3 receptor ([125I]-iodosulpride displacement); details: membranes from HEK-293 cells, 0.1 nM [125I]-iodosulpride
T2 construct: expressed in transfected cells
Description: as §1
The mixture (0.250 ml) is composed of membranes from ˜10^6 HEK-293 cells with stably expressed human dopamine D3 receptors, 0.1 nM [^125I]-iodosulpride and incubation buffer (total binding) or with addition of test substance (inhibition plot) or 1 μM spiperone (nonspecific binding). Triplicate mixtures were carried out.
The incubation buffer contained 50 mM Tris, 120 mM NaCl, 5 mM KCl, 2 mM CaCl2, 2 mM MgCl2 and 0.1% bovine serum albumin, 10 μM quinolone, 0.1% ascorbic acid (prepared fresh each day). The buffer was adjusted to pH 7.4 with HCl.
as §2, §3

[3] = Investigation of the cerebral availability and the oral bioavailability; format: in vivo, male Wistar rats; details: rat; for bioavailability / Kp: male, Wistar; for bioavailability: plasma, AUCoral/AUCiv, oral 10 mg/kg, intravenous 2 mg/kg, read-out: F (bioavailability); for Kp: brain/plasma, oral, 10 mg/kg of body weight, read-out: AUCbrain/AUCplasma; for cmax (brain) / AUCbrain: oral (gavage) 10 mg/kg, brain tissue; for AUCbrain: trapezoidal method
Description: The test substances were administered to male Wistar rats in parallel experiments in each case intravenously (tail vein, 2 mg/kg of body weight) and orally (gavage, 10 mg/kg of body weight). The test compound was dissolved in water with up to 4% by volume of DMSO and/or ethanol for intravenous administration and suspended in 4% by weight aqueous hydroxypropyl-cellulose solution for oral administration. After various times (intravenous: 5 min, 15 min, 30 min, 2 h, 8 h and 24 h; oral: 15 min, 30 min, 2 h, 8 h and 24 h) after the administration, a blood sample or brain tissue were taken from 2 rats in each case. The concentration of the test compound in the blood plasma and in the brain tissue (plasma and brain) was determined in a conventional way by coupled liquid chromatography/mass spectroscopy or by HPLC. The area under the concentration-time plot for brain (AUCbrain) and for plasma (AUCiV, AUCoral) were by means of the trapezoidal method from the results obtained [((tn−tn-1)×(cn+cn-1)/2) calculated, in which tn is the time of determination and tn-1 is the preceding time of determination, and cn and cn-1 are respectively the concentrations at time tn and tn-1]. The maximum concentration of the active ingredients in brain tissue cmax brain, the value of AUCbrain, and the AUCbrain/AUCplasma ratio is a measure of the cerebral availability of the active substance. In addition, the bioavailability F of the active ingredient was calculated in a manner known per se from the data (AUCoral/AUCiv in %).

T2 sequence (P35462 whole entry): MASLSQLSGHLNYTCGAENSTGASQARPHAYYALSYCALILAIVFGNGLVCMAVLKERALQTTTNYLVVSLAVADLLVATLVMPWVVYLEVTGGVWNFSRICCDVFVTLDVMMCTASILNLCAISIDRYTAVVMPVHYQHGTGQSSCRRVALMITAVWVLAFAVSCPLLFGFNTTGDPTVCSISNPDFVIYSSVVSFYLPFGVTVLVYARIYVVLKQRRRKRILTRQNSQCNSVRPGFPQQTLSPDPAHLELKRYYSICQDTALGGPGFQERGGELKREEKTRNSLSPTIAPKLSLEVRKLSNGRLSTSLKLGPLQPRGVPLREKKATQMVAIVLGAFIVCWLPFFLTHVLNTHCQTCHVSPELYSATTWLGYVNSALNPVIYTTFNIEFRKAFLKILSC
T1 sequence (P14416 whole entry, canonical isoform): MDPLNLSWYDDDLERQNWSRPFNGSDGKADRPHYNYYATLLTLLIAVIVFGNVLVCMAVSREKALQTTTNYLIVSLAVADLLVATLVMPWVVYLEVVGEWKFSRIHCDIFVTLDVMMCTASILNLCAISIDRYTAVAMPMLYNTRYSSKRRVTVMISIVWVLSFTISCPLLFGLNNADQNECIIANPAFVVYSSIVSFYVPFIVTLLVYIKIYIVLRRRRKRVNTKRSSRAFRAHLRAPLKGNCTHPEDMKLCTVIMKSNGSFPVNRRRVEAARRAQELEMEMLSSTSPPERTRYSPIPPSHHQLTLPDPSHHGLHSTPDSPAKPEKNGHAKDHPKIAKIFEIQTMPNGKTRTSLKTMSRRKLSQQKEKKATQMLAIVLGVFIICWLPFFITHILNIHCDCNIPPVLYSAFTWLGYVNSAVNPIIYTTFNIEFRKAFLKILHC

Row | SMILES | Ki (D2)/Ki (D3) [1] | Ki [2] | further results
1 | CCC(=O)c1ccc2c(c1)CN(CCCSc1nnc(-c3cccn3C)n1C)CC2 (as salt: hydrochloride) [Ia′-15, 2-(3-{[4-Methyl-5-(1-methyl-1H-pyrrol-2-yl)-4H-1,2,4-triazol-3-yl]thio}propyl)-7-propionyl-1,2,3,4-tetrahydroisoquinoline] | – | – | melting point: 181 to 184 °C
2 | Cn1c(SCCCN2CCc3ccc(C(=O)c4ccccc4)cc3C2)nnc1-c1ccsc1 (as salt: hydrochloride) [Ia′-18, 7-Benzoyl-2-{3-[(4-methyl-5-thien-3-yl-4H-1,2,4-triazol-3-yl)thio]propyl}-1,2,3,4-tetrahydroisoquinoline] | – | – | melting point: 140 °C
3 | Cn1c(SCCCN2CCc3ccc(C(=O)c4cccc(F)c4)cc3C2)nnc1-c1ccccc1 (as salt: hydrochloride) [Ia′-68, 7-(3-Fluorobenzoyl)-2-{3-[(4-methyl-5-phenyl-4H-1,2,4-triazol-3-yl)thio]propyl}-1,2,3,4-tetrahydroisoquinolines] | – | – | melting point: 147 °C
4 | Cn1c(SCCCN2CCc3ccc(C(=O)c4ccccc4)cc3C2)nnc1-c1ccco1 [Ia′-3, 7-Benzoyl-2-(3-{[5-(2-furyl)-4-methyl-4H-1,2,4-triazol-3-yl]thio}propyl)-1,2,3,4-tetrahydroisoquinoline] | 40 | 19.3 nM | –
5 | Cn1c(SCCCN2CCc3ccc(C(=O)c4ccccc4)cc3C2)nnc1-c1ccsc1 [Ia′-18, 7-Benzoyl-2-{3-[(4-methyl-5-thien-3-yl-4H-1,2,4-triazol-3-yl)thio]propyl}-1,2,3,4-tetrahydroisoquinoline] | 48 | 22.4 nM | –
6 | Cn1c(SCCCN2CCc3ccc(C(=O)c4cccc(F)c4)cc3C2)nnc1-c1cnccn1 [Ia′-58, 7-(3-Fluorobenzoyl)-2-{3-[(4-methyl-5-pyrazin-2-yl-4H-1,2,4-triazol-3-yl)thio]propyl}-1,2,3,4-tetrahydroisoquinoline] | 39 | 25.5 nM | –
7 | Cn1cccc1-c1nnc(SCCCN2CCc3ccc(C(=O)c4cccc(F)c4)cc3C2)n1C [Ia′-60, 7-(3-Fluorobenzoyl)-2-(3-{[4-methyl-5-(1-methyl-1H-pyrrol-2-yl)-4H-1,2,4-triazol-3-yl]thio}-propyl)-1,2,3,4-tetrahydroisoquinoline] | 37 | 30.3 nM | –
8 | Cn1c(SCCCN2CCc3ccc(C(=O)c4cccc(F)c4)cc3C2)nnc1-c1cccnc1 [Ia′-63, 7-(3-Fluorobenzoyl)-2-{3-[(4-methyl-5-pyridin-3-yl-4H-1,2,4-triazol-3-yl)thio]propyl}-1,2,3,4-tetrahydroisoquinolines] | 38 | 40.3 nM | –
9 | CCC(=O)c1ccc2c(c1)CN(CCCSc1nnc(-c3ccc[nH]3)n1C)C2.Cl [Ib′-65, 1-[2-(3-{[4-Methyl-5-(1H-pyrrol-2-yl)-4H-1,2,4-triazol-3-yl]thio}propyl)-2,3-dihydro-1H-isoindol-5-yl]propan-1-one hydrochloride] | 49 | 40 nM | –

The next lines start with results.

Row | Ki (D2)/Ki (D3) [1] | Ki [2] | SMILES | further results
10 | 133 | 11.4 nM | Cn1c(SCCCN2CCc3ccc(C(=O)c4ccccc4)cc3C2)nnc1-c1ccncc1 [Ia′-1, 7-Benzoyl-2-{3-[(4-methyl-5-pyridin-4-yl-4H-1,2,4-triazol-3-yl)thio]propyl}-1,2,3,4-tetrahydroisoquinoline] | –
11 | 80 | 4.5 nM | CC(=O)c1ccc2c(c1)CN(CCCSc1nnc(-c3cccn3C)n1C)CC2 [Ia′-4, 7-Acetyl-2-(3-{[4-methyl-5-(1-methyl-1H-pyrrol-2-yl)-4H-1,2,4-triazol-3-yl]thio}propyl)-1,2,3,4-tetrahydroisoquinoline] | –
12 | 90 | 10.7 nM | Cn1cccc1-c1nnc(SCCCN2CCc3ccc(C(=O)c4ccccc4)cc3C2)n1C [Ia′-12, 7-Benzoyl-2-(3-{[4-methyl-5-(1-methyl-1H-pyrrol-2-yl)-4H-1,2,4-triazol-3-yl]thio}propyl)-1,2,3,4-tetrahydroisoquinoline] | bioavailability [3]: 10%; Kp [3]: 0.2; cmax (brain) [3]: 130 ng/g; AUCbrain [3]: 306 ng·h/g
13 | 103 | 4.4 nM | CCC(=O)c1ccc2c(c1)CN(CCCSc1nnc(-c3cccn3C)n1C)CC2 [Ia′-15, 2-(3-{[4-Methyl-5-(1-methyl-1H-pyrrol-2-yl)-4H-1,2,4-triazol-3-yl]thio}propyl)-7-propionyl-1,2,3,4-tetrahydroisoquinoline] | bioavailability [3]: 100%; Kp [3]: 0.3; cmax (brain) [3]: 686 ng/g; AUCbrain [3]: 2903 ng·h/g
14 | 149 | 8.6 nM | Cn1c(SCCCN2CCc3ccc(C(=O)c4ccccc4)cc3C2)nnc1-c1ccccc1 [Ia′-19, 7-Benzoyl-2-{3-[(4-methyl-5-phenyl-4H-1,2,4-triazol-3-yl)thio]propyl}-1,2,3,4-tetrahydroisoquinolines] | –
15 | 90 | 4.4 nM | CCC(=O)c1ccc2c(c1)CN(CCCSc1nnc(-c3ccccc3)n1C)CC2 [Ia′-25, 2-{3-[(4-methyl-5-phenyl-4H-1,2,4-triazol-3-yl)thio]propyl}-7-propionyl-1,2,3,4-tetrahydroisoquinoline] | –
16 | 37 | 18.8 nM | CC(=O)c1ccc2c(c1)CN(CCCSc1nnc(-c3cccnc3)n1C)CC2 [Ia′-39, 7-Acetyl-2-{3-[(4-methyl-5-pyridin-3-yl-4H-1,2,4-triazol-3-yl)thio]propyl}-1,2,3,4-tetrahydroisoquinolines] | –
17 | 59 | 2.6 nM | CCC(=O)c1ccc2c(c1)CN(CCCSc1nnc(-c3cc4ccccc4s3)n1C)CC2 [Ia′-57, 1-[2-(3-{[5-(1-Benzothien-2-yl)-4-methyl-4H-1,2,4-triazol-3-yl]thio}propyl)-1,2,3,4-tetrahydroisoquinolin-7-yl]propan-1-one] | –
18 | 56 | 14.9 nM | Cn1c(SCCCN2CCc3ccc(C(=O)c4cccc(F)c4)cc3C2)nnc1-c1ccccc1 [Ia′-68, 7-(3-Fluorobenzoyl)-2-{3-[(4-methyl-5-phenyl-4H-1,2,4-triazol-3-yl)thio]propyl}-1,2,3,4-tetrahydroisoquinolines] | –
19 | 126 | 21.4 nM | CCC(=O)c1ccc2c(c1)CN(CCCSc1nnc(-c3ccccc3)n1C)C2.Cl [Ib′-25, 1-(2-{3-[(4-Methyl-5-phenyl-4H-1,2,4-triazol-3-yl)thio]propyl}-2,3-dihydro-1H-isoindol-5-yl)propan-1-one hydrochloride] | –
